Counter-ions that a name gives are not always drawn. Like-named read-outs stand apart in the source and are kept apart here.

For one data set, the system named is fibroblast cells (3T6). Particulars: cell numbers after 24 hrs exposure, lactate dehydrogenase assay after lysis of remaining cells.
For data set [1], the target named is T1, full-length tau ("T40") in fibroblast cells (3T6) (Homo sapiens, UniProt P10636).
T1 construct: fibroblast cells (3T6) express full-length tau ("T40") under control of an inducible promotor; low constitutive levels of the PHF-core tau fragment (12 kD fragment); expressed in transfected cells; host or cells: 3T6 fibroblast cells
T1 sequence (P10636 2-441 isoform P10636-8 limits assumed): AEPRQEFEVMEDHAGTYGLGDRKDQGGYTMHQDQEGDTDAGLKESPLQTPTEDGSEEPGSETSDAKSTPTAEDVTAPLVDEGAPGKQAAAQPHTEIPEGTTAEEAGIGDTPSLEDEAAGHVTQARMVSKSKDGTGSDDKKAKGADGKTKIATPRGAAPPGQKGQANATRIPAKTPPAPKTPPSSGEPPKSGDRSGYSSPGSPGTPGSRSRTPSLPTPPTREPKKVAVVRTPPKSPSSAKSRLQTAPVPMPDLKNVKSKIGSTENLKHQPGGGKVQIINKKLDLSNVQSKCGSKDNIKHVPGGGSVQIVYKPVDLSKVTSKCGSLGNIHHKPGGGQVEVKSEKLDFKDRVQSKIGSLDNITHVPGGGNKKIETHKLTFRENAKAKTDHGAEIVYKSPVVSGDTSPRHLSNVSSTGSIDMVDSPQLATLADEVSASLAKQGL
Description: Cell-based assay for establishing EC50 (inhibition of generation of the 12 kD PHF-core tau fragment). The settings on record: concentration at which there is a 50% inhibition of generation of the 12 kD fragment; 3T6 cells. The text has this:
In essence, fibroblast cells (3T6) express full-length tau ("T40") under control of an inducible promotor, and low constitutive levels of the PHF-core tau fragment (12 kD fragment).
This is referred to as the EC50 value.

For data set [2], the target named is T2, tau-tau binding (truncated tau residues 297-390; dGA, and full-length tau (T40)) (Homo sapiens, UniProt P10636). The settings on record: read-out: B50; concentration of compound required to inhibit the tau-tau binding by 50%.
T2 sequence (P10636 614-707): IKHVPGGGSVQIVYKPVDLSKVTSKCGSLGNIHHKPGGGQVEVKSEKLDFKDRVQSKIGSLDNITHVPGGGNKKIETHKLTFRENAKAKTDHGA
T2 sequence (P10636 1-441 isoform P10636-8): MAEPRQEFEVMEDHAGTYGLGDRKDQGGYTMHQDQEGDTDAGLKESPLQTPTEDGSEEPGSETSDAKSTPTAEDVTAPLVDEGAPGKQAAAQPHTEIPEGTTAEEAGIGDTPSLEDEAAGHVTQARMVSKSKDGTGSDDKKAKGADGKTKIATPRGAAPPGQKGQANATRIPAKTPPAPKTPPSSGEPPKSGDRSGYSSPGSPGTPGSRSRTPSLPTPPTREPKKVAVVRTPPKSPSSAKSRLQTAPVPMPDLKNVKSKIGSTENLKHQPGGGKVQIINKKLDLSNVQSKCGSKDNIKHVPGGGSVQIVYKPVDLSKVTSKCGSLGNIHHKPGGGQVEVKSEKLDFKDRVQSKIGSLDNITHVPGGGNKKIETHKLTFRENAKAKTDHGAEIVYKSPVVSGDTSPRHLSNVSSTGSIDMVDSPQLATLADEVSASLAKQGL
Description: (§1) Briefly, a fragment of tau corresponding to the core repeat domain, which has been adsorbed to a solid phase substrate, is able to capture soluble full-length tau and bind tau with high affinity.
(§2) The aqueous phase binding buffer contained 0.05% Tween-20 and 1% gelatine in phosphate-buffered saline (pH7.4).
Data set [3] addresses T2, tau-tau binding (truncated tau residues 297-390; dGA, and full-length tau (T40)). The data set can be described thus: biochemical.
Description: as §1, §2

As a reminder, the EC50 is the concentration giving half of the maximal effect. A low value points to a more potent agent. For the compound `CCc1cc(N(CC)CC)cc2[s+]c3cc(N(CC)CC)cc(CC)c3nc12` [DEETC, 1,9-diethyl-ethyl-thioninium chloride], the LD50 in the data set on fibroblast cells (3T6) is listed as 1.6 ± 0.4 (13) µM. In data set [1], this compound returned an EC50 of 0.6 ± 0.3 nM. In addition, the IC50 in data set [2] stood at 3700 ± 500 nM.

As to `CCc1cc(N(C)C)cc2[s+]c3cc(N(C)C)cc(CC)c3nc12` [DEMTC, 1,9-diethyl-methyl-thioninium chloride], the LD50 with fibroblast cells (3T6) is recorded as 3.3 ± 0.6 (22) µM. The compound further returned an EC50 in data set [1] of 1.6 ± 0.6 nM.

In the case of `CCN(CC)c1cc(C)c2nc3c(C)cc(N(CC)CC)cc3[s+]c2c1` [DMETC, 1,9-dimethyl-ethyl-thioninium chloride], the LD50 with fibroblast cells (3T6) is reported as 4.2 ± 2.2 (4) µM. The same compound came in with an EC50 in data set [1] of 4 ± 1 nM. Moreover, in data set [2], the IC50 turned out to be 4500 ± 300 nM.

Regarding `Cc1cc(N(C)C)cc2[s+]c3cc(N(C)C)cc(C)c3nc12` [DMMTC, 1,9-dimethyl-methyl-thioninium chloride, reference compound], the LD50 in the data set with fibroblast cells (3T6) is reported as 2.7 ± 1.2 (6) µM. Besides, the EC50 in data set [1] came out at 40 ± 4 nM.

Regarding `CCN(CC)c1ccc2nc3ccc(=[N+](CC)CC)cc-3sc2c1` [ETI, ethyl-thioninium iodide], the midpoint of the response in data set [1], the EC50, lay at 60 nM. For the same compound, the IC50 in data set [2] is over 500000 nM.

Compound `CCN(CC)c1ccc2nc3ccc(=[N+](CC)CC)cc-3sc2c1` [ETI.HI, ethyl-thioninium iodide hydrogen iodide mixed salt] yielded an IC50 in data set [3] of 83000 nM.

Turning to ethyl-thioninium chloride [ETC], the LD50 in the data set with fibroblast cells (3T6) is 32.0 ± 4.0 (26) µM. The same compound displayed an EC50 in data set [1] of 70 ± 7 nM. Besides, the IC50 in data set [2] is 49000 ± 8500 nM.

(Values after patent publication EP2853293B1, “Thioninium compounds and their use” (WisTa Laboratories Ltd., priority 2006, dated 2007).)
